# Results as given in patent publication US20230052298A1, “LACTIC ACID BACTERIUM FERMENTATION PROMOTER” (MEIJI CO., LTD., priority 2019, published 2023).
# Key:
# [1] = test system: L. delbrueckii subsp. bulgaricus 2038; assay: Test Example 2-1: fermentation time versus concentration of malic acid or fumaric acid; type: cell-based, Lactobacillus delbrueckii subsp. bulgaricus; conditions: L. bulgaricus 2038; from Tables 3 and 4
# Method: The fermentation was carried out using a fermentation medium (raw material milk). The fermentation medium was prepared by adding formic acid to the 10% reduced skim milk medium so as to give a final concentration of 1 mM, and then sterilizing the mixture at 95° C., and was used. […] In the above fermentation medium, a lactic acid bacterial starter of […] was inoculated at 0.5% (with respect to the amount of fermentation medium), statically cultured at 40° C., and fermented. The fermentation time was the time required for the medium to reach pH 4.6.
# [2] = test system: L. delbrueckii subsp. bulgaricus 2038; assay: Test Example 2-1: organic acid concentrations after fermentation (HPLC); type: cell-based, Lactobacillus delbrueckii subsp. bulgaricus; conditions: strain 2038
# Method: The fermentation was carried out using a fermentation medium (raw material milk). The fermentation medium was prepared by adding formic acid to the 10% reduced skim milk medium so as to give a final concentration of 1 mM, and then sterilizing the mixture at 95° C., and was used. […] In the above fermentation medium, a lactic acid bacterial starter of […] was inoculated at 0.5% (with respect to the amount of fermentation medium), statically cultured at 40° C., and fermented. The fermentation time was the time required for the medium to reach pH 4.6. The measurement of the organic acid concentration after the completion of fermentation was carried out as follows. An aliquot of 0.4 g of the fermentate obtained (fermented milk) was diluted by 2-fold with pure water, 20 μL of Carrez's Reagent I (53.5% (w/v) zinc sulfate) was added thereto and the mixture was vortexed, and 20 μl of Carrez's Reagent II (17.2% (w/v) potassium ferrocyanide) was added thereto and the mixture was vortexed. The resulting mixture was centrifuged at 4° C., 20620 g for 10 minutes, and the supernatant was filtered through a 0.22 μm filter and the filtrate was analyzed under the conditions shown in Table 2.
# [3] = test system: Lactobacillus delbrueckii subsp. bulgaricus; assay: Test Example 2-2: organic acid concentration in fermentate at completion of fermentation, formic acid medium; type: cell-based; conditions: 1 mM additive, 1 mM formic acid medium
# Method: (§1) The strains shown in Tables 6 and 7 were precultured in the preculture medium and then used. The activation medium used was a 10 mass % reduced skim milk medium containing 0.1 mass % yeast extract, sterilized at 121° C. for 7 minutes. Here, the 10 mass % reduced skim milk medium is a 10 mass % aqueous solution of skim milk powder (fat 1 mass %, protein 34 mass %, lactose 54 mass %, ash 8 mass %, non-fat milk solid 96 mass %) (manufactured by Meiji Co., Ltd.) (in the above medium, lactose 5.4 mass %, non-fat milk solid 9.6 mass %). Frozen bacteria were added to the above-mentioned activation medium in an amount of 0.1 mass % (with respect to the amount of the activation medium) and statically cultured at 37° C. for 16 hours to obtain an activation solution. An aliquot of 0.1 mass % of the activation solution obtained (with respect to the amount of activation medium) was added to another activation medium, and the mixture was allowed to stand at 37° C. for 16 hours to obtain a lactic acid bacterial starter. Then, fermentation was carried out using a fermentation medium as raw material milk. The fermentation medium was prepared by adding formic acid to the 10 mass % reduced skim milk medium so as to give a final concentration of 1 mM, and then sterilizing the mixture at 95° C., and was used. […] The pH of the fermentation medium was about 6.4. The lactic acid bacterial starter of each strain obtained above was inoculated into the fermentation medium in an amount of 2.5 mass % (with respect to the amount of the fermentation medium), statically cultured at 40° C., and fermented. The fermentation time was the time required for the medium to reach pH 4.6. The pH value was measured using a commercially available pH meter.
# L. rhamnosus = assay: Test Example 5: organic acid concentrations after fermentation; type: cell-based, Lactobacillus rhamnosus; conditions: 1 mM added
# Method: (§2) The measurement of the organic acid concentration after the completion of fermentation was carried out as follows. An aliquot of 0.4 g of the fermentate obtained (fermented milk) was diluted by 2-fold with pure water, 20 μL of Carrez's Reagent I (53.5% (w/v) zinc sulfate) was added thereto and the mixture was vortexed, and 20 μl of Carrez's Reagent II (17.2% (w/v) potassium ferrocyanide) was added thereto and the mixture was vortexed. The resulting mixture was centrifuged at 4° C., 20620 g for 10 minutes, and the supernatant was filtered through a 0.22 μm filter and the filtrate was analyzed under the conditions shown in Table 2. [table] The measurement of the organic acid concentration after the completion of fermentation by L. rhamnosus and L. salivarius in Test Example 3 or 4 was carried out in the same manner as in Test Example 2-1. The addition of malic acid or fumaric acid promoted production of succinic acid by L. rhamnosus and L. salivarius.
# L. salivarius = assay: as above; type: cell-based, Lactobacillus salivarius; conditions: 1 mM added
# Method: as §2
# [4] = test system: Lactobacillus delbrueckii subsp. bulgaricus; assay: Test Example 8: organic acid concentration in fermentate at completion of fermentation, inosinic acid medium; type: cell-based; conditions: 1 mM additive, 1 mM inosinic acid medium
# Method: as §1, with “Tables 13” for “Tables 6”, “and 14” for “and 7”, “adding inosinic” for “adding formic”
# [5] = test system: Lactobacillus delbrueckii subsp. bulgaricus OLL1073R-1; assay: Test Example 9: EPS production during culture; type: cell-based; conditions: 4 mM added; strain OLL1073R-1; 37° C.; compared with the control
# Method: Frozen bacteria of Lactobacillus delbrueckii subsp. bulgaricus OLL1073R-1 were prepared.
# Raw material components other than anhydrous crystalline glucose were dissolved in Elix water, the mixture was adjusted to pH 6.65 using sodium hydroxide, and then diluted in measuring flask to 70 wt % of the charge amount of the medium. Anhydrous crystalline glucose was dissolved in Elix water, and diluted in measuring flask to 30 wt % of the charge amount of the medium.
# In addition, the raw material components other than sugar solution and sugar were sterilized separately by heating at 110° C. for 1 minute in an autoclave and then aseptically mixed and used.
# An aliquot of 1.5 kg of the above medium was adjusted to pH 5.4 using 6 N potassium carbonate, to the medium, 0.30 mass % of frozen bacteria (with respect to the amount of medium) was inoculated, and the bacteria were cultured at 37° C. while top ventilating with nitrogen at a flow rate of 0.5 L/min and stirring under the condition of 150 rpm.
# The EPS concentration was measured under the following conditions. […]
# The supernatant was removed by centrifuging (4° C., 13400 g, 20 min), and 20 ml of cooled 66% ethanol was added thereto to suspend the precipitate. […] The EPS concentration of the analysis sample was measured by the phenol-sulfuric acid method.
# [6] = No addition of L. delbrueckii subsp. bulgaricus
Structure (SMILES),Concentrations at which a fermentation promoting effect was confirmed [1] [mM],Concentration of fumaric acid ([2]; 1 mM added) [mM],Concentration of malic acid ([2]; 1 mM added) [mM],"Concentration of malic acid [3, 6] [mM]","Concentration of succinic acid [3, 6] [mM]",Concentration of succinic acid in fermentate at completion of fermentation (pH 4.6) ([3]; strain 2038) [mM],Concentration of succinic acid in fermentate at completion of fermentation (pH 4.6) ([3]; strain OLL1073R-1) [mM],Concentration of succinic acid in fermentate at completion of fermentation (pH 4.6) ([3]; strain OLL1171) [mM],Concentration of succinic acid in fermentate at completion of fermentation (pH 4.6) ([3]; strain OLL1247) [mM],Concentration of succinic acid in fermentate at completion of fermentation (pH 4.6) ([3]; strain OLL1255) [mM],Concentration of succinic acid in fermentate at completion of fermentation (pH 4.6) ([3]; strain OLL205013) [mM],Concentration of succinic acid in fermentate at completion of fermentation (pH 4.6) ([3]; strain P1902901) [mM],Concentration of fumaric acid (L. salivarius) [mM],Concentration of malic acid (L. salivarius) [mM],Concentration of succinic acid (L. salivarius) [mM],"Concentration of malic acid [4, 6] [mM]","Concentration of succinic acid [4, 6] [mM]",Concentration of succinic acid in fermentate at completion of fermentation (pH 4.6) ([4]; strain 0LL1171) [mM],Concentration of succinic acid in fermentate at completion of fermentation (pH 4.6) ([4]; strain 2038) [mM],Concentration of succinic acid in fermentate at completion of fermentation (pH 4.6) ([4]; strain OLL1073R-1) [mM],other results
"O=C(O)/C=C/C(=O)O [Fumaric acid, fumaric acid]",0.01 to 2.5,0.00,0.00,0.11,0.07,1.67,1.73,1.58,1.72,1.49,1.54,1.59,0.62,0.51,0.29,0.13,0.06,1.43,1.43,1.52,"Concentration of fumaric acid [3, 6]: 1.11 mM; Concentration of fumaric acid in fermentate at completion of fermentation (pH 4.6) ([3]; strain OLL1255): 0.15 mM; Concentration of succinic acid (L. rhamnosus): 1.39 mM; Concentration of fumaric acid [4, 6]: 1.12 mM; Concentration of succinic acid in fermentate at completion of fermentation (pH 4.6) ([4]; strain OLL1247): 1.57 mM; Concentration of succinic acid in fermentate at completion of fermentation (pH 4.6) ([4]; strain OLL1255): 1.49 mM; Concentration of succinic acid in fermentate at completion of fermentation (pH 4.6) ([4]; strain OLL205013): 1.60 mM; Concentration of succinic acid in fermentate at completion of fermentation (pH 4.6) ([4]; strain P1902901): 1.40 mM; EPS concentration with the culturing time (FIG. 1) [5]: higher concentration compared with the control"
"O=C(O)CC(O)C(=O)O (centres unmarked) [Malic acid, malic acid]",0.01 to 50,0.00,0.00,0.99,0.08,1.71,1.67,1.57,1.67,1.03,1.55,1.59,0.35,0.75,0.28,1.06,0.06,1.40,1.40,1.50,Concentration of succinic acid ([2]; 1 mM added): 1.94 mM; Concentration of fumaric acid ([2]; 10 mM added): 0.03 mM; Concentration of malic acid ([2]; 10 mM added): 4.27 mM; Concentration of succinic acid ([2]; 10 mM added): 5.78 mM; Concentration of fumaric acid ([2]; 50 mM added): 0.21 mM; Concentration of malic acid ([2]; 50 mM added): 42.05 mM; Concentration of succinic acid ([2]; 50 mM added): 9.84 mM; Concentration of malic acid in fermentate at completion of fermentation (pH 4.6) ([3]; strain OLL1255): 0.35 mM; Concentration of succinic acid in fermentate at completion of fermentation (pH 4.6) ([4]; strain OLL1247): 1.53 mM; Concentration of succinic acid in fermentate at completion of fermentation (pH 4.6) ([4]; strain OLL1255): 1.46 mM; Concentration of succinic acid in fermentate at completion of fermentation (pH 4.6) ([4]; strain OLL205013): 1.53 mM; Concentration of succinic acid in fermentate at completion of fermentation (pH 4.6) ([4]; strain P1902901): 1.38 mM; EPS concentration with the culturing time (FIG. 1) [5]: higher concentration compared with the control
